# In PubChem BioAssay AID2060908 (Molecular Pharmacology Branch, DTP, NCI, 2025):
# pIC50: −log10 of the molar value.
# Tested on: 186277-243-T-J2-PDC complex spheroids, viability
# Experiment: Anticancer human tumor 186277-243-T-J2-PDC patient-derived colon adenocarcinoma cell line growth inhibition [RAS]
# Settings: for pIC50: curve of first compound; for viability, T/C: stronger effect = lower value
# Text: RAS pathway inhibitors in Combinations in Complex Spheroids
# A high-throughput screen of multi-cell type tumor spheroids was designed to identify active combinations of RAS pathway inhibitors and targeted small molecules. Complex spheroids include a stromal component modeled by human endothelial cells (HUVEC) and fibroblasts modeled by human mesenchymal stem cells (MSCs). The concentration ranges selected for each drug and investigational agent were based upon clinically achievable concentrations if the clinical Cmax of the agent was known.
# Compounds. The drugs and investigational agents: abemaciclib (NSC768073), cobimetinib (NSC768068), divarasib (GDC6063, NSC841802), docetaxel (NSC628503), GDC-1971 (RLY-1971, NSC841576), gemcitabine (NSC613327), inavolisib (NSC800729), ipatasertib (NSC767898), KB-0742 (NSC834161), MRTX-1133 (NSC836407), osimertinib (NSC779217), RMC-4630 (NSC839698), RMC-6236 (NSC851965), RMC-6291 (NSC852671), Ro-3306 (NSC812927), sapanisertib (NSC764658), SN-38 (NSC673596), staurosporine (NSC755774), SY5609 (NSC837396), and tovorafenib (DAY101, NSC766906), were obtained from the National Cancer Institute (NCI) Developmental Therapeutics Program Chemical Repository. The FDA-approved anticancer drug set is available from the NCI Developmental Therapeutics Program. […] The stock solutions were prepared in dimethyl sulfoxide (DMSO, Sigma-Aldrich, St. Louis, MO, cat. D2650) at 800-fold the tested concentration and stored at -70 degrees C prior to their use. All drugs and investigational agents were tested over a range starting from a high concentration at or near the clinical Cmax and decreasing in half-log increments. If the clinical Cmax for an agent had not been determined, the highest concentration tested was 10 microM.
# Cell Culture. All cells were maintained in an incubator at 37 degrees C and 5% CO2 with 95% humidity. The PDC lines were cultured according to standard operating procedures established by the NCI PDMR. All PDCs were thawed and cultured in Matrigel-coated flasks prepared with a working solution of 1X Ham's F-12 nutrient mix, without supplementation (Invitrogen, Waltham, MA, cat. 11765054), 100 U/mL penicillin-streptomycin (Invitrogen, cat. 15140122), and 2.5% Matrigel (Corning Inc., Corning, NY, cat. 354248) for the first three passages. The 362531-283-R-J2-PDC and 782815-120-R-J1-PDC lines were cultured in 6C/Colon 1B media, which includes advanced DMEM/F-12 (Thermo Fisher Scientific, cat. 12634028), 10 mM HEPES (Thermo Fisher Scientific, cat. 15630080), 1X GlutaMAX supplement (Thermo Fisher Scientific, cat. 35050061), 0.1 mg/mL primocin (InvivoGen, San Diego, CA, cat. ant-pm-2), 10% defined fetal bovine serum, heat inactivated (HyClone Laboratories Inc., Logan, UT, cat. SH30070.03HI), 50% L-WRN conditioned media (ATCC, cat. CRL-3276), 1.25 mM N-Acetyl-L-cysteine (Sigma-Aldrich, cat. A9165), 10 mM nicotinamide (Sigma-Aldrich, cat. N0636), 1X B-27 supplement (Thermo Fisher Scientific, cat. 17504044), 1X N-2 supplement (Thermo Fisher Scientific, cat. 17502048), 50 ng/mL human EGF (Thermo Fisher Scientific, cat. PHG0311), and 10 microM Y-27632 dihydrochloride (Tocris Bioscience, cat. 1254). The K12877-001-R-J1-PDC line was cultured in 6I media, which includes all 6C/Colon 1B media plus 10 ng/mL human FGF-10 (PeproTech, cat. 100-26), 1 ng/mL human FGF-2 (PeproTech, cat. 100-18B), 1 µM prostaglandin E2 (Tocris Bioscience, cat. 2296), […] hydrocortisone (Sigma-Aldrich, cat. H4001), and […] bovine insulin (Sigma-Aldrich, cat. I6634). The K86415-001-R-J1-PDC line was cultured in 6D media, which includes all 6C/Colon 1B media components minus the L-WRN conditioned media. The 485176-168-R4-J1-PDC was cultured in PANC media, which includes all 6C/Colon 1B media plus 100 ng/mL human FGF-10 (PeproTech, cat. 100-26), 500 nM SB-431542 (Selleckchem, cat. S1067), and 10 nM gastrin (Tocris Bioscience, cat. 3006). […]
# [1] = second compound 0.0316 µM, first compound 0.0316 µM
# [2] = second compound 0.0316 µM, first compound 0.1 µM
# [3] = second compound 0.1 µM, first compound 0.0316 µM
# [4] = second compound 0.1 µM, first compound 0.1 µM
# [5] = second compound 0.316 µM, first compound 0.0316 µM
# [6] = second compound 0.316 µM, first compound 0.1 µM
# [7] = second compound 1 µM, first compound 0.0316 µM
# [8] = second compound 1 µM, first compound 0.1 µM
# [9] = second compound 3.16 µM, first compound 0.0316 µM
# [10] = second compound 3.16 µM, first compound 0.1 µM
# [11] = second compound 10 µM, first compound 0.0316 µM
# [12] = second compound 10 µM, first compound 0.1 µM
# 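Further: spheroids exposed to compounds for 7 days before viability read.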
smiles,measurement,setting,value
CC(C)NCC(C(=O)N1CCN(c2ncnc3c2C(C)CC3O)CC1)c1ccc(Cl)cc1 (centres undefined) + C#Cc1c(F)ccc2cc(O)cc(-c3ncc4c(N5CC6CCC(C5)N6)nc(OCC56CCCN5CC(F)C6)nc4c3F)c12,pIC50,second compound 0.0316 µM,6.61
same,pIC50,second compound 0.1 µM,6.93
same,pIC50,second compound 0.316 µM,> 7.50
same,pIC50,second compound 1 µM,> 7.50
same,pIC50,second compound 3.16 µM,> 7.50
same,pIC50,second compound 10 µM,> 7.50
same,"viability, T/C",[1],74.3%
same,"viability, T/C",[2],76.1%
same,"viability, T/C","second compound 0.0316 µM, first compound 0.316 µM",40.8%
same,"viability, T/C","second compound 0.0316 µM, first compound 1 µM",20.5%
same,"viability, T/C","second compound 0.0316 µM, first compound 3.16 µM",10.6%
same,"viability, T/C","second compound 0.0316 µM, first compound 10 µM",7.17%
same,"viability, T/C",[3],55.4%
same,"viability, T/C",[4],55.4%
same,"viability, T/C","second compound 0.1 µM, first compound 0.316 µM",29.3%
same,"viability, T/C","second compound 0.1 µM, first compound 1 µM",12%
same,"viability, T/C","second compound 0.1 µM, first compound 3.16 µM",6.43%
same,"viability, T/C","second compound 0.1 µM, first compound 10 µM",4.17%
same,"viability, T/C",[5],28.8%
same,"viability, T/C",[6],26.3%
same,"viability, T/C","second compound 0.316 µM, first compound 0.316 µM",13.1%
same,"viability, T/C","second compound 0.316 µM, first compound 1 µM",5.77%
same,"viability, T/C","second compound 0.316 µM, first compound 3.16 µM",3.93%
same,"viability, T/C","second compound 0.316 µM, first compound 10 µM",2.95%
same,"viability, T/C",[7],17.7%
same,"viability, T/C",[8],14.4%
same,"viability, T/C","second compound 1 µM, first compound 0.316 µM",10.1%
same,"viability, T/C","second compound 1 µM, first compound 1 µM",5.25%
same,"viability, T/C","second compound 1 µM, first compound 3.16 µM",4.08%
same,"viability, T/C","second compound 1 µM, first compound 10 µM",2.03%
same,"viability, T/C",[9],12.4%
same,"viability, T/C",[10],11.2%
same,"viability, T/C","second compound 3.16 µM, first compound 0.316 µM",9.1%
same,"viability, T/C","second compound 3.16 µM, first compound 1 µM",3.67%
same,"viability, T/C","second compound 3.16 µM, first compound 3.16 µM",2.83%
same,"viability, T/C","second compound 3.16 µM, first compound 10 µM",2.07%
same,"viability, T/C",[11],8.59%
same,"viability, T/C",[12],9.81%
same,"viability, T/C","second compound 10 µM, first compound 0.316 µM",5.65%
same,"viability, T/C","second compound 10 µM, first compound 1 µM",3.64%
same,"viability, T/C","second compound 10 µM, first compound 3.16 µM",2.9%
same,"viability, T/C","second compound 10 µM, first compound 10 µM",0.94%
CC(C)n1nc(-c2ccc3oc(N)nc3c2)c2c(N)ncnc21 + C#Cc1c(F)ccc2cc(O)cc(-c3ncc4c(N5CC6CCC(C5)N6)nc(OCC56CCCN5CC(F)C6)nc4c3F)c12,pIC50,second compound 0.0316 µM,7.86
same,pIC50,second compound 0.1 µM,8.74
same,pIC50,second compound 0.316 µM,> 9.50
same,pIC50,second compound 1 µM,> 9.50
same,pIC50,second compound 3.16 µM,> 9.50
same,pIC50,second compound 10 µM,> 9.50
same,"viability, T/C","second compound 0.0316 µM, first compound 0.000316 µM",69.1%
same,"viability, T/C","second compound 0.0316 µM, first compound 0.001 µM",90.7%
same,"viability, T/C","second compound 0.0316 µM, first compound 0.00316 µM",58.6%
same,"viability, T/C","second compound 0.0316 µM, first compound 0.01 µM",51.7%
same,"viability, T/C",[1],44.2%
same,"viability, T/C",[2],25.9%
same,"viability, T/C","second compound 0.1 µM, first compound 0.000316 µM",63.1%
same,"viability, T/C","second compound 0.1 µM, first compound 0.001 µM",53.6%
same,"viability, T/C","second compound 0.1 µM, first compound 0.00316 µM",44.3%
same,"viability, T/C","second compound 0.1 µM, first compound 0.01 µM",37.8%
same,"viability, T/C",[3],19.9%
same,"viability, T/C",[4],7.3%
same,"viability, T/C","second compound 0.316 µM, first compound 0.000316 µM",26%
same,"viability, T/C","second compound 0.316 µM, first compound 0.001 µM",28.6%
same,"viability, T/C","second compound 0.316 µM, first compound 0.00316 µM",13.9%
same,"viability, T/C","second compound 0.316 µM, first compound 0.01 µM",12.1%
same,"viability, T/C",[5],7.95%
same,"viability, T/C",[6],3.56%
same,"viability, T/C","second compound 1 µM, first compound 0.000316 µM",18.2%
same,"viability, T/C","second compound 1 µM, first compound 0.001 µM",14.2%
same,"viability, T/C","second compound 1 µM, first compound 0.00316 µM",13.9%
same,"viability, T/C","second compound 1 µM, first compound 0.01 µM",6.42%
same,"viability, T/C",[7],5.57%
same,"viability, T/C",[8],2.65%
same,"viability, T/C","second compound 3.16 µM, first compound 0.000316 µM",13.7%
same,"viability, T/C","second compound 3.16 µM, first compound 0.001 µM",11.4%
same,"viability, T/C","second compound 3.16 µM, first compound 0.00316 µM",7.28%
same,"viability, T/C","second compound 3.16 µM, first compound 0.01 µM",4.66%
same,"viability, T/C",[9],4.51%
same,"viability, T/C",[10],2.8%
same,"viability, T/C","second compound 10 µM, first compound 0.000316 µM",9.87%
same,"viability, T/C","second compound 10 µM, first compound 0.001 µM",6.96%
same,"viability, T/C","second compound 10 µM, first compound 0.00316 µM",8.48%
same,"viability, T/C","second compound 10 µM, first compound 0.01 µM",4.45%
same,"viability, T/C",[11],3.9%
same,"viability, T/C",[12],1.75%
